The results in this text go back to patent publication US20220298213A1, “IN VIVO ENGINEERED CEREBLON PROTEIN” (Vividion Therapeutics, Inc., priority 2018, published 2022).

Holding throughout (test): Inhibition of iodoacetamide probe labeling of CRBN cysteines, cell lysate (Table 3A)
Common to all, as to type: binding

For one assay, the target named is T1, CRBN Cys287 (Homo sapiens, UniProt Q96SW2).
T1 construct: endogenous in cells
Particulars: for inhibition at 7.8 µM: 7.8 micromolar. The protocol: (§1) “X@Y” means that x % inhibition of iodoacetamide probe labeling was observed by treatment of cell lysate with the give compound in each row of the table for 1 h at a concentration of y micromolar. There was consistently high inhibition at C318 in addition to C287, which can be attributed to an allosteric inhibition.

Another assay has as its target T2, CRBN Cys318 (Homo sapiens, UniProt Q96SW2).
T2 construct: endogenous in cells
Here is the method:
as §1

In another assay the target is T3, CRBN Cys188 (Homo sapiens, UniProt Q96SW2).
T3 construct: endogenous in cells
Particulars: cell lysate, 1 h. Here is the method:
as §1

For a further assay, the target named is T4, CRBN Cys205 (Homo sapiens, UniProt Q96SW2).
T4 construct: endogenous in cells
The following applies: read-out: % inhibition of iodoacetamide probe labeling, Cys205. The protocol: as §1

The target of a further assay is T5, CRBN Cys219 (Homo sapiens, UniProt Q96SW2).
T5 construct: endogenous in cells
Particulars: read-out: % inhibition of iodoacetamide probe labeling, Cys219. The protocol:
as §1

The target of a further assay is T6, CRBN Cys234 (Homo sapiens, UniProt Q96SW2).
T6 construct: endogenous in cells
The following applies: read-out: % inhibition of iodoacetamide probe labeling, Cys234. Here is the method: as §1

The target in the next assay is T7, CRBN Cys366 (Homo sapiens, UniProt Q96SW2).
T7 construct: endogenous in cells
Particulars: read-out: % inhibition of iodoacetamide probe labeling, Cys366. Here is the method: as §1

Where [1] appears, read: 50 micromolar, cell lysate, 1 h.
The mark [2] stands for this setting: read-out: % inhibition of iodoacetamide probe labeling, Cys287.
Where [3] appears, read: 500 micromolar, cell lysate, 1 h.
[4] abbreviates: 500 micromolar, cell lysate, 1 h, read-out: % inhibition of iodoacetamide probe labeling, Cys287.
[5] abbreviates: 31.2 micromolar, cell lysate, 1 h, read-out: % inhibition of iodoacetamide probe labeling, Cys287.

Like-named read-outs stand apart in the source and are kept apart here.

T2 sequence (Q96SW2 whole entry): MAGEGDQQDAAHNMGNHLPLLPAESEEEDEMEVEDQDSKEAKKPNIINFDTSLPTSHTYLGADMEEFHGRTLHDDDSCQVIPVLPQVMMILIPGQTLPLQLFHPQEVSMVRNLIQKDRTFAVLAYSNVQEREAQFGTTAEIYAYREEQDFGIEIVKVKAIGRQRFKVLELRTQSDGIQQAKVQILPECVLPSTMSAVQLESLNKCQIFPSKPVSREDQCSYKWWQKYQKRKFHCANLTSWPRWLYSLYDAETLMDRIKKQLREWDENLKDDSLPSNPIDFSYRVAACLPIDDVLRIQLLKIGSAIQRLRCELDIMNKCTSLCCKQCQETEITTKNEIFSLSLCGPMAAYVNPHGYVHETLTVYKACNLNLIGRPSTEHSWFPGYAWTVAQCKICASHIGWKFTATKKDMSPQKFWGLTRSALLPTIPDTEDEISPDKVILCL
T1 sequence (Q96SW2 whole entry): as above
T6 sequence (Q96SW2 whole entry): as above
T4 sequence (Q96SW2 whole entry): as above
T5 sequence (Q96SW2 whole entry): as above
T3 sequence (Q96SW2 whole entry): as above
T7 sequence (Q96SW2 whole entry): as above

The term inhibition denotes the drop in the measured response relative to a control, in per cent. `COc1ccccc1-c1cc(C#N)cc(OC2CCN(C(=O)/C=C/CN(C)C)CC2)c1` [Al]: the inhibition at 5 µM against CRBN Cys287 (5 micromolar, cell lysate, 1 h) is 40%; on CRBN Cys318 (5 micromolar, cell lysate, 1 h), 43%. In addition, the inhibition at 50 µM on CRBN Cys287 (setting [1]) came to 90%; against CRBN Cys318 (setting [1]), 86%. Further, the inhibition at 500 µM was 97% on CRBN Cys287 (setting [2]) and 95% at CRBN Cys318 (read-out: % inhibition of iodoacetamide probe labeling, Cys318, 500 micromolar, cell lysate, 1 h).

`C=CC(=O)N1CC(Oc2ccc(Cl)cc2)C1` [Example A3]: the inhibition at 125 µM at CRBN Cys188 (125 micromolar) is 5%; on CRBN Cys205, 21%; on CRBN Cys219 it was 8%; at CRBN Cys234 it was 19%; on CRBN Cys287 (setting [2]), 80%; at CRBN Cys318 (read-out: % inhibition of iodoacetamide probe labeling, Cys318, 125 micromolar, cell lysate, 1 h), 64%. Besides, at CRBN Cys366, the inhibition at 125 µM was -6%. In addition, the inhibition at 500 µM on CRBN Cys188 (500 micromolar) turned out to be 3%; at CRBN Cys205 (setting [3]), 15%; at CRBN Cys219 (setting [3]), 40%; on CRBN Cys234 (setting [3]), 31%; at CRBN Cys287 (setting [4]), 96%; on CRBN Cys318 (500 micromolar, cell lysate, 1 h, read-out: % inhibition of iodoacetamide probe labeling, Cys318), 85%. For the same molecule, the inhibition at 31.2 µM is 7% at CRBN Cys205; 19% at CRBN Cys219; 6% on CRBN Cys234; 51% at CRBN Cys287 (setting [2]); 35% at CRBN Cys318 (read-out: % inhibition of iodoacetamide probe labeling, Cys318, 31.2 micromolar, cell lysate, 1 h). In addition, the inhibition at 7.8 µM amounted to 12% against CRBN Cys287 (cell lysate, 1 h) and 21% on CRBN Cys318 (7.8 micromolar, cell lysate, 1 h).

For `COc1ccccc1-c1cc(C#N)cc(OC2CCN(C(=O)/C(C#N)=C/C(C)(C)C)CC2)c1` [Example A4], on CRBN Cys287 (cell lysate, 1 h), the inhibition at 7.8 µM is 96%. Also, the inhibition at 31.2 µM on CRBN Cys287 (setting [5]) worked out at 97%. Moreover, the inhibition at 500 µM at CRBN Cys287 (setting [4]) came to 99%. Besides, the inhibition at 125 µM on CRBN Cys287 (setting [2]) was 99%.

Consider `CC(/C=C(\C#N)C(=O)N1CCC(Oc2cccc(C#N)c2)CC1)c1ccccc1` (centres unmarked) [Example A6], for which the inhibition at 31.2 µM at CRBN Cys287 (setting [5]) was 82%. For the same molecule, the inhibition at 125 µM at CRBN Cys287 (125 micromolar, cell lysate, 1 h, read-out: % inhibition of iodoacetamide probe labeling, Cys287) came to 94%. The inhibition at 500 µM on CRBN Cys287 (setting [4]) was 95%. In addition, at CRBN Cys287 (setting [2]), the inhibition at 0.49 µM was 62% and the inhibition at 2 µM is 77%.
